Laboratory results published in article PMC9331314, “Synthesis and Antiviral Properties of Camphor-Derived Iminothiazolidine-4-Ones and 2,3-Dihydrothiazoles” (Molecules, 2022).
Like-named read-outs stand apart in the source and are kept apart here.

Assays:
[1] = tested on: vaccinia virus (strain Copenhagen); assay: microbe, parasite or virus in culture; conditions: Orthopoxvirus vaccinia, Vero, 96 h
[2] = tested on: Marburg pseudovirus (GP MARV); assay: microbe, parasite or virus in culture; conditions: 24 h
in vitro [3] = conditions: African green monkey
[4] = tested on: vaccinia virus (strain Copenhagen)
in vitro [5] = conditions: human
[6] = tested on: Marburg pseudovirus (GP MARV)
VSV-GP-EboV = conditions: cited from earlier work
VV = conditions: cited from earlier work
H1N1 = conditions: cited from earlier work

SMILES | IC50 [1] [µM] | IC50 [2] [µM] | CC50 (in vitro [3]) [µM] | SI (CC50/IC50) [4] | CC50 (in vitro [5]) [µM] | SI (CC50/IC50) [6] | further results
CC1(C)[C@H]2CC[C@]1(C)/C(=N/NC(=S)Nc1ccccc1)C2 [2′a, (E)-N-phenyl-2-((1S,4S)-1,7,7-trimethylbicyclo[2.2.1]heptan-2-ylidene)hydrazinecarbothioamide] | 4.3 ± 1.8 | 5.9 ± 2.1 | 16 ± 2.8 | 4 | 280 ± 38.6 | – | IC50 [4]: lower micromolar range; CC50 (Vero cells): quite toxic
C=CCNC(=S)N/N=C1\C[C@@H]2CC[C@@]1(C)C2(C)C [2′b, (E)-N-allyl-2-((1S,4S)-1,7,7-trimethylbicyclo[2.2.1]heptan-2-ylidene)hydrazinecarbothioamide] | 12 ± 2.9 | 3.8 ± 1.9 | 35 ± 4.6 | 3 | 56.5 ± 8.2 | 15 | –
CCNC(=S)N/N=C1\C[C@@H]2CC[C@@]1(C)C2(C)C [2′c, (E)-N-ethyl-2-((1S,4S)-1,7,7-trimethylbicyclo[2.2.1]heptan-2-ylidene)hydrazinecarbothioamide] | 14 ± 2.6 | 9.1 ± 3.9 | 45 ± 6.6 | 3 | 530 ± 35.4 | 16 | –
C=CCN1C(=O)CS/C1=N/N=C1/C[C@@H]2CC[C@@]1(C)C2(C)C [3′b, (Z)-3-allyl-2-((E)-((1S,4S)-1,7,7-trimethylbicyclo[2.2.1]heptan-2-ylidene)hydrazono)thiazolidin-4-one] | 66 ± 12.9 | 45.8 ± 6.5 | 160 ± 20.8 | 2 | 121 ± 6.5 | 3 | –
CCN1C(=O)CS/C1=N/N=C1/C[C@@H]2CC[C@@]1(C)C2(C)C [3′c, (Z)-3-ethyl-2-((E)-((1S,4S)-1,7,7-trimethylbicyclo[2.2.1]heptan-2-ylidene)hydrazono)thiazolidin-4-one] | 64 ± 12.3 | 68.2 ± 20.4 | 220 ± 28.6 | 4 | 170 ± 40.9 | 3 | –
C=CCNC(=S)N/N=C1\C[C@H]2CC[C@]1(C)C2(C)C [Compound 2b, (E)-N-allyl-2-((1R,4R)-1,7,7-trimethylbicyclo[2.2.1]heptan-2-ylidene)hydrazinecarbothioamide] | – | 24.5 ± 3.8 | 200 ± 23.8 | – | 128 ± 37.8 | 5 | IC50 [4]: low; CC50 (Vero cells): least cytotoxicity
CCN1C(=O)CS/C1=N/N=C1/C[C@H]2CC[C@]1(C)C2(C)C [Compound 3c, (Z)-3-ethyl-2-((E)-((1R,4R)-1,7,7-trimethylbicyclo[2.2.1]heptan-2-ylidene)hydrazono)thiazolidin-4-one] | 24 ± 3.9 | 30.7 ± 6.8 | 87 ± 10.1 | 4 | 54.1 ± 9.2 | 2 | –
CN1C(=O)CS/C1=N/N=C1/C[C@H]2CC[C@]1(C)C2(C)C [Compound 3d, (Z)-3-methyl-2-((E)-((1R,4R)-1,7,7-trimethylbicyclo[2.2.1]heptan-2-ylidene)hydrazono)thiazolidin-4-one] | 100 ± 17.6 | – | 310 ± 41.3 | 3 | – | – | –
CC1(C)S/C(=N/N=C2/C[C@H]3CC[C@]2(C)C3(C)C)N(c2ccccc2)C1=O [Compound 4a, (Z)-5,5-dimethyl-3-phenyl-2-((E)-((1R,4R)-1,7,7-trimethylbicyclo[2.2.1]heptan-2-ylidene)hydrazono)thiazolidin-4-one] | 32.5 ± 2.8 | 94.7 ± 8.1 | 270 ± 35.2 | 8 | 325 ± 36.1 | 3 | –
C=CCn1c(-c2ccc(Cl)cc2)cs/c1=N/N=C1\C[C@H]2CC[C@]1(C)C2(C)C [Compound 5b, (E)-3-allyl-4-(4-chlorophenyl)-2-((E)-((1R,4R)-1,7,7-trimethylbicyclo[2.2.1]heptan-2-ylidene)hydrazono)-2,3-dihydrothiazole] | 2.5 ± 0.3 | 30 ± 10 | 19 ± 2.8 | 8 | 80 ± 20 | 3 | –
CCn1c(-c2ccc(Cl)cc2)cs/c1=N/N=C1\C[C@H]2CC[C@]1(C)C2(C)C [Compound 5c, (E)-4-(4-chlorophenyl)-3-ethyl-2-((E)-((1R,4R)-1,7,7-trimethylbicyclo[2.2.1]heptan-2-ylidene)hydrazono)-2,3-dihydrothiazole] | 12 ± 1.5 | 25.8 ± 5.2 | 70 ± 8.9 | 6 | 51.6 ± 15.5 | 2 | –
Cn1c(-c2ccc(Cl)cc2)cs/c1=N/N=C1\C[C@H]2CC[C@]1(C)C2(C)C [Compound 5d, (E)-4-(4-chlorophenyl)-3-methyl-2-((E)-((1R,4R)-1,7,7-trimethylbicyclo[2.2.1]heptan-2-ylidene)hydrazono)-2,3-dihydrothiazole] | 2.6 ± 0.2 | 10.7 ± 2.7 | 144 ± 18.7 | – | 107 ± 5.3 | 10 | CC50 (Vero cells): least toxic
C=CCn1c(-c2ccc(C)cc2)cs/c1=N/N=C1\C[C@H]2CC[C@]1(C)C2(C)C [Compound 6b, (E)-3-allyl-4-p-tolyl-2-((E)-((1R,4R)-1,7,7-trimethylbicyclo[2.2.1]heptan-2-ylidene)hydrazono)-2,3-dihydrothiazole] | 4 ± 0.6 | 5.3 ± 2.6 | 12 ± 2.1 | 3 | 39.5 ± 4.8 | 7 | –
Cc1ccc(-c2cs/c(=N/N=C3\C[C@H]4CC[C@]3(C)C4(C)C)n2C)cc1 [Compound 6d, (E)-3-methyl-4-p-tolyl-2-((E)-((1R,4R)-1,7,7-trimethylbicyclo[2.2.1]heptan-2-ylidene)hydrazono)-2,3-dihydrothiazole] | 5.1 ± 0.7 | 28.3 ± 8.5 | 17 ± 3.1 | 3 | 79.2 ± 8.5 | 3 | –
CC1(C)[C@@H]2CC[C@@]1(C)/C(=N/N=c1/scc(-c3ccccc3)n1-c1ccccc1)C2 [Compound 8a, (E)-3,4-diphenyl-2-((E)-((1R,4R)-1,7,7-trimethylbicyclo[2.2.1]heptan-2-ylidene)hydrazono)-2,3-dihydrothiazole] | 18 ± 1.9 | 29.9 ± 5 | 122 ± 14.7 | 7 | 89.6 ± 19.9 | 3 | –
C=CCn1c(-c2ccccc2)cs/c1=N/N=C1\C[C@H]2CC[C@]1(C)C2(C)C [Compound 8b, (E)-3-allyl-4-phenyl-2-((E)-((1R,4R)-1,7,7-trimethylbicyclo[2.2.1]heptan-2-ylidene)hydrazono)-2,3-dihydrothiazole] | 3 ± 0.4 | 19.2 ± 2.7 | 17 ± 2.9 | 6 | < 41 | <2 | –
CCn1c(-c2ccccc2)cs/c1=N/N=C1\C[C@H]2CC[C@]1(C)C2(C)C [Compound 8c, (E)-3-ethyl-4-phenyl-2-((E)-((1R,4R)-1,7,7-trimethylbicyclo[2.2.1]heptan-2-ylidene)hydrazono)-2,3-dihydrothiazole] | 3 ± 0.5 | 28.3 ± 2.8 | 17 ± 3.3 | 6 | < 42.4 | <2 | –
Cn1c(-c2ccccc2)cs/c1=N/N=C1\C[C@H]2CC[C@]1(C)C2(C)C [Compound 8d, (E)-3-methyl-4-phenyl-2-((E)-((1R,4R)-1,7,7-trimethylbicyclo[2.2.1]heptan-2-ylidene)hydrazono)-2,3-dihydrothiazole] | 1.5 ± 0.2 | 26.5 ± 5.9 | 14 ± 2.4 | 9 | < 44.2 | <2 | –
CCN1CCN(CCC(=O)N[C@@H]2C[C@H]3CC[C@]2(C)C3(C)C)CC1 [IIIa] | – | – | – | – | – | – | IC50 (VSV-GP-EboV): 0.6 µM; SI (VSV-GP-EboV): 908
CC1(C)[C@@H]2CC[C@@]1(C)[C@H](NC(=O)CN1CCOCC1)C2 [IIIb] | – | – | – | – | – | – | IC50 (VSV-GP-EboV): 5.7 µM; SI (VSV-GP-EboV): 147; IC50 (VV): 12.5 µM; SI (VV): 40
CC1(C)[C@H]2CC[C@]1(C)[C@H](OC(=O)CN1CCOCC1)C2 [IIa] | – | – | – | – | – | – | IC50 (H1N1): 7.1 µM; SI (H1N1): 82; IC50 (VSV-GP-EboV): 24.9 µM; SI (VSV-GP-EboV): 13; IC50 (VV): 17.9 µM; SI (VV): 56
CN1CCN(CC(=O)O[C@@H]2C[C@@H]3CC[C@@]2(C)C3(C)C)CC1 [IIb] | – | – | – | – | – | – | IC50 (H1N1): 4.4 µM; SI (H1N1): 23; IC50 (VSV-GP-EboV): 6.8 µM; SI (VSV-GP-EboV): 46
CC1(C)[C@@H]2CC[C@@]1(CS(=O)(=O)N1CCOCC1)C(=O)C2 [IVa] | – | – | – | – | – | – | IC50 (VSV-GP-EboV): 0.9 µM; SI (VSV-GP-EboV): 921
CC1(C)[C@@H]2CC[C@@]1(CS(=O)(=O)n1cncn1)C(=O)C2 [IVb] | – | – | – | – | – | – | IC50 (VSV-GP-EboV): 1 µM; SI (VSV-GP-EboV): 1764
CC1CCN(CCC(=O)O[C@@H]2C[C@@H]3CC[C@@]2(C)C3(C)C)CC1 [Ia] | – | – | – | – | – | – | IC50 (VSV-GP-EboV): 0.3 µM; SI (VSV-GP-EboV): 956
CC1(C)[C@H]2CC[C@]1(C)[C@H](OC(=O)CCN1CCOCC1)C2 [Ib] | – | – | – | – | – | – | IC50 (H1N1): 12.2 µM; SI (H1N1): 45; IC50 (VV): 3.5 µM; SI (VV): 48
CN1CCN(CCC(=O)O[C@@H]2C[C@@H]3CC[C@@]2(C)C3(C)C)CC1 [Ic] | – | – | – | – | – | – | IC50 (H1N1): 1.9 µM; SI (H1N1): 215; IC50 (VSV-GP-EboV): 0.3 µM; SI (VSV-GP-EboV): 870
CC1(C)[C@@H]2CC[C@@]1(C)/C(=N/Nc1nc(-c3ccc(Cl)cc3)cs1)C2 [Va] | – | – | – | – | – | – | IC50 (VV): 2.7 µM; SI (VV): 24
CC1(C)[C@@H]2CC[C@@]1(C)/C(=N/Nc1nc(-c3ccc(Br)cc3)cs1)C2 [Vb] | – | – | – | – | – | – | IC50 (VV): 2.4 µM; SI (VV): 32
COc1ccc(-c2csc(N/N=C3\C[C@H]4CC[C@]3(C)C4(C)C)n2)cc1 [Vc] | – | – | – | – | – | – | IC50 (VV): 3.7 µM; SI (VV): 26
